Earlier results as cited in paper PMC12805357, “Cooperative ligand binding in a bacterial heme-based oxygen sensor” (The Journal of Biological Chemistry, 2025).

Key:
[1] = sperm whale myoglobin
[2] = design: method as in earlier work; conditions: myoglobins; ref 7 of the supplement (Faulkner et al., 1995)

In the case of “sperm whale myoglobin (swMb): sperm whale myoglobin, literature comparison protein”, the “n (Hill coefficient), O2 binding” value [1] is given as 0.95 ± 0.05, the Kd ([1]; read-out: Kd, equilibrium oxygen affinity) is given as 0.83 to 1.5 µM and the “Midpoint 1 (mV vs SHE)” value [2] is given as 47 mV vs SHE.
